Patent publication US20110144125A1, “Anti-Arrhythmia Agents, Methods of Their Use, Methods of Their Identification and Kits Therefore” (THE UAB RESEARCH FOUNDATION, priority 2008, published 2011)
Several values for one entry are separate records, joined by “and”; a condition that tells them apart may be missing. Equal entries are not always repeated. Where two headings read alike, the source gives them in different places.

Key:
[1] = system: rat left atrial appendage; experiment: 2-APB-induced spontaneous mechanical activity (SMA/SMEs) in isolated superfused rat left atria / left atrial appendage
rat left atria = experiment: Left atrial force of contraction / post-rest potentiation maximum force
Procedure: Left atria were isolated from male Sprague-Dawley rats (325 to 400 g) under IP pentobarbital anesthesia (0.1 g/kg). Isolated left atria were superfused at 30° C. in Krebs-Henseleit (KH) buffer of the following mM composition: NaCl, 118; NaHCO3, 27; KCl, 4.8; MgSO4, 1.2; KH2PO4, 1.0; CaCl2, 1.8; and glucose, 11.1. Nearly isometric left atrial forces of contraction were measured as described.
The initial potentiated beat following prolonged rest (i.e., the PRP maximum force of contraction) reflects activator calcium available for SR release. The PRP response was used to obtain an indirect measure of left atrial SR calcium under our conditions.
Left atria (n=6) were superfused in KH, paced at 0.1 Hz, and subjected to PRP. Superfusion proceeded for another 35 min, and a second PRP was performed. These 2 forces were compared to assure the mechanical stability of our preparations.
One group (n=8) was superfused in KH, paced at 0.1 Hz, and their maximum force of contraction was measured. These atria were washed with KH containing 82 mM sodium, and a second PRP was performed 23 min later.
A second group (n=8) was paced at 0.1 Hz in KH and subjected to PRP. They were exposed to 22 μM 2-APB and, after the appearance of SMA, were washed with KH containing 22 μM 2-APB and 82 mM sodium. Superfusion continued for 23 min and a second PRP was performed.
Control 0.1 Hz paced atria (n=8) were subjected to PRP and exposed to 400 μM DIDS, and a second PRP was performed 23 min later.
A group of atria (n=8) were paced at 0.1 Hz in KH and subjected to PRP. They were exposed to 22 μM 2-APB, 400 μM DIDS was added to the superfusate after the appearance of SMA, and a second PRP was performed 23 min later.
Left atria (n=8 per group) were paced at 3 Hz and (i) titrated with 0 to 30 nM isoproterenol (Ahlquist, 1970) or (ii) exposed to 3 μM forskolin (Laurenza et al., 1980). Left atrial force and frequency of contraction, the time to peak tension and relaxation times were recorded after a 3-5 min exposure to forskolin or to any concentration of isoproterenol. The 3 Hz pacing stimulus was interrupted at the end of these protocols to measure SMEs.
Left atria (n=6 per group) were paced at 3 Hz, titrated with 0 to 300 nM (−)BayK 8644 ([…]-1,4-Dihydro-2,6-dimethyl-5-nitro-4-[2-(trifluormethyl)phenyl]-3-pyridinecarboxylic acid methyl ester; Franckowiak et al. 1985) or FPL-64176 ((2,5-Dimethyl-4-[2-(phenylmethyl)benzoyl]-111-pyrrole-3-carboxylic acid methyl ester; Zheng et al., 1991) and their mechanical function and rates of SMA were recorded after a 5 min exposure to any concentration of slow calcium channel activator.
To test whether ryanodine receptor calcium leak produces SMA, left atria (n=6 per group) were paced at 0.1 Hz, treated with 0 or 300 nM BayK 8644 for 5 min, and then exposed to 600 nM ryanodine (Sutko et al., 1997). Atrial mechanical function and rates of SMA were recorded 20 min after exposure to ryanodine.
Left atria (n=7) were paced at 3 Hz, treated with 120 μM ouabain (Illanes and Marshall, 1964), and any change in mechanical function was recorded at a new steady state, ˜10 min later. These atria were exposed to 20 μM 2-APB and their mechanical function and rates of SMA were recorded 10 min later.
To test whether zatebradine affects left atrial force of contraction, two groups of left atria (n=9 per group) were paced at 3 Hz and treated with 300 nM BayK 8644. Five minutes later one group was incubated with six increasing concentrations of zatebradine (10-100 μM) for 3-5 min at each concentration, and forces of contraction were recorded. A second group was treated with BayK 8644 but not zatebradine, and forces of contraction were recorded at corresponding times.

[2] = no 2-APB, 30 nM isoproterenol, 3 μM forskolin, 300 nM BayK 8644 or FPL-64176, 120 μM ouabain, 600 nM ryanodine

Row | Compound | ectopic activity (SMEs/SMA/STA) with agent alone [1] | left atrial force of contraction with agent alone (rat left atria) | ectopic activity (SMEs/SMA/STA) with agent alone [1, 2] | left atrial force of contraction with agent alone (rat left atria; [2]) | further results
1 | ryanodine | SMEs, SMA or STA does not occur | Time-dependent decreases in force of contraction | – | – | –
2 | C[C@@H]1O[C@@H](O[C@H]2C[C@@H](O)[C@]3(CO)[C@H]4[C@H](O)C[C@]5(C)[C@@H](C6=CC(=O)OC6)CC[C@]5(O)[C@@H]4CC[C@]3(O)C2)[C@H](O)[C@H](O)[C@H]1O [ouabain] | – | – | does not affect their mechanical stability | doubles their force of contraction | –
3 | CC(C)NCC(O)c1ccc(O)c(O)c1 (stereo not drawn) [isoproterenol] | – | – | quiescent in the absence of pacing | increase left atrial force of contraction | –
4 | COC(=O)c1c(C)[nH]c(C)c1C(=O)c1ccccc1Cc1ccccc1 [FPL-64176, 2,5-Dimethyl-4-[2-(phenylmethyl)benzoyl]-111-pyrrole-3-carboxylic acid methyl ester] | SMA or SMEs do not occur | increase left atrial force of contraction | – | – | –
5 | COC(=O)C1=C(C)NC(C)=C([N+](=O)[O-])[C@H]1c1ccccc1C(F)(F)F [BayK 8644, (45)-1,4-Dihydro-2,6-dimethyl-5-nitro-4-[2-(trifluormethyl)phenyl]-3-pyridinecarboxylic acid methyl ester] | SMA or SMEs do not occur | increase left atrial force of contraction | – | – | –
6 | NCCOB(c1ccccc1)c1ccccc1 [2-APB, 2-aminoethoxydiphenyl borate] | – | – | – | – | 2-APB concentration giving intermittent increases in left atrial mechanical force independent of pacing (SMEs) [1]: > 7.5 µM; 2-APB concentration producing sporadic mechanical events in the absence of pacing stimulus [1]: > 10 M; SMEs during rest [1]: numerous SMEs during rest; SMEs giving way to SMA [1]: Repeated SMEs; SMEs in slowly paced preparations [1]: only few SMEs; rate of SMA [1]: 47±6 contractions/min and ~50 contractions/min; maximum force of atrial contraction (rat left atria): also decreased; maximum force of left atrial contraction (rat left atria): significantly decreased
